# In patent EP0068680A1, “Antibiotics” (BEECHAM GROUP PLC, priority 1981, dated 1983):
# Read-outs that look alike come from different tables or passages of the source.
# Legend:
# M. suipneumoniae UCD 1 = experiment: MIC against Mycoplasma in vitro (agar); assay type: cell-based; conditions: Friis broth solidified with 0.9% agarose, 6 days at 37°C
# M. dispar NCTC 10125 = experiment: MIC against Mycoplasma in vitro (agar); assay type: cell-based; conditions: Friis broth solidified with 0.9% agarose, 6 days at 37°C
# [1] = test system: Staph. aureus 152 (pen. sens); experiment: MIC against Veterinary Bacteria in vitro (agar dilution)
# Experimental: (§1) The activity of the compounds of the Examples against various veterinarily important bacteria, was assayed in vitro using two-fold serial dilutions in Diagnostic Sensitivity Test Agar inoculated with 10^4 organisms.
# Staph. aureus Russell = experiment: MIC against Human Bacteria in vitro (agar dilution); assay type: cell-based; conditions: agar with 5% chocolated horse blood, 18 hours at 37°C
# [2] = test system: M. hyosynoviae ATCC 25591; experiment: MIC against Mycoplasma in vitro (agar); assay type: cell-based; conditions: Friis broth solidified with 0.9% agarose, 6 days at 37°C
# [3] = test system: Ps. aeruginosa NCTC 10662; experiment: MIC against Human Bacteria in vitro (agar dilution); assay type: cell-based; conditions: 18 hours at 37°C
# [4] = test system: Corynebacterium xerosis 9755; experiment: as above; assay type: cell-based; conditions: agar with 5% chocolated horse blood, 18 hours at 37°C
# [5] = test system: Pasteurella multocida 1633; experiment: as above; assay type: cell-based; conditions: agar with 5% chocolated horse blood, 18 hours at 37°C
# Strep. pneumoniae CN33 = experiment: as above; assay type: cell-based; conditions: agar with 5% chocolated horse blood, 18 hours at 37°C
# Staph. aureus Oxford [6] = experiment: MIC against Veterinary Bacteria in vitro (agar dilution)
# Experimental: as §1
# [7] = test system: M. suipneumoniae J2206/183^b; experiment: MIC against Mycoplasma in vitro (agar); assay type: cell-based; conditions: Friis broth solidified with 0.9% agarose, 6 days at 37°C
# M. suipneumoniae HK(2) = experiment: MIC against Mycoplasma in vitro (agar); assay type: cell-based; conditions: Friis broth solidified with 0.9% agarose, 6 days at 37°C
# [8] = test system: M. suipneumoniae PW/C/210; experiment: MIC against Mycoplasma in vitro (agar); assay type: cell-based; conditions: Friis broth solidified with 0.9% agarose, 6 days at 37°C
# Strep. uberis SPU1 = experiment: MIC against Veterinary Bacteria in vitro (agar dilution)
# Experimental: as §1
# [9] = test system: M. suipneumoniae ATCC 25095; experiment: MIC against Mycoplasma in vitro (agar); assay type: cell-based; conditions: Friis broth solidified with 0.9% agarose, 6 days at 37°C
# M. suipneumoniae TAM 6N = experiment: MIC against Mycoplasma in vitro (agar); assay type: cell-based; conditions: Friis broth solidified with 0.9% agarose, 6 days at 37°C
# [10] = test system: Erysipelothrix rhusiopathiae NCTC 8163; experiment: MIC against Veterinary Bacteria in vitro (agar dilution)
# Experimental: as §1
# Strep. agalactiae SPA1 = experiment: as above
# Experimental: as §1
# M. suipneumoniae LABER = experiment: MIC against Mycoplasma in vitro (agar); assay type: cell-based; conditions: Friis broth solidified with 0.9% agarose, 6 days at 37°C
# M. hyorhinis ATCC 25021 = experiment: MIC against Mycoplasma in vitro (agar); assay type: cell-based; conditions: Friis broth solidified with 0.9% agarose, 6 days at 37°C
# M. gallisepticum S6 = experiment: MIC against Mycoplasma in vitro (agar); assay type: cell-based; conditions: Friis broth solidified with 0.9% agarose, 6 days at 37°C
# Staph. aureus W2827 = experiment: MIC against Human Bacteria in vitro (agar dilution); assay type: cell-based; conditions: agar with 5% chocolated horse blood, 18 hours at 37°C
# M. suipneumoniae MS 16 = experiment: MIC against Mycoplasma in vitro (agar); assay type: cell-based; conditions: Friis broth solidified with 0.9% agarose, 6 days at 37°C
# [11] = test system: Neisseria catarrhalis 1502; experiment: MIC against Human Bacteria in vitro (agar dilution); assay type: cell-based; conditions: agar with 5% chocolated horse blood, 18 hours at 37°C
# S. dublin S7 = experiment: MIC against Veterinary Bacteria in vitro (agar dilution)
# Experimental: as §1
# Staph. aureus Oxford [12] = experiment: MIC against Human Bacteria in vitro (agar dilution); assay type: cell-based; conditions: agar with 5% chocolated horse blood, 18 hours at 37°C
# [13] = test system: Staph. aureus B4 (pen. resistant); experiment: MIC against Veterinary Bacteria in vitro (agar dilution)
# Experimental: as §1
# E. coli E1 = experiment: as above
# Experimental: as §1
# [14] = test system: Haemophilus influenzae Q1; experiment: MIC against Human Bacteria in vitro (agar dilution); assay type: cell-based; conditions: agar with 5% chocolated horse blood, 18 hours at 37°C
# Bacillus subtilis 6633 = experiment: as above; assay type: cell-based; conditions: agar with 5% chocolated horse blood, 18 hours at 37°C
# P. mirabilis 889 = experiment: as above; assay type: cell-based; conditions: agar with 5% chocolated horse blood, 18 hours at 37°C
# Past. multocida PA2 = experiment: MIC against Veterinary Bacteria in vitro (agar dilution)
# Experimental: as §1
# M. suipneumoniae NB12 = experiment: MIC against Mycoplasma in vitro (agar); assay type: cell-based; conditions: Friis broth solidified with 0.9% agarose, 6 days at 37°C
# M. suipneumoniae Str. 11 = experiment: MIC against Mycoplasma in vitro (agar); assay type: cell-based; conditions: Friis broth solidified with 0.9% agarose, 6 days at 37°C
# Strep. pyogenes B2788 = experiment: MIC against Human Bacteria in vitro (agar dilution); assay type: cell-based; conditions: agar with 5% chocolated horse blood, 18 hours at 37°C
# M. bovis NCTC 10131 = experiment: microbe, parasite or virus in culture; assay type: cell-based
# Bord. bronchiseptica B09 = experiment: MIC against Veterinary Bacteria in vitro (agar dilution)
# Experimental: as §1
# E. coli NCTC 10418 = experiment: as above
# Experimental: as §1
# Past. haemolytica PA5 = experiment: as above
# Experimental: as §1
# [15] = test system: M. bovigenitalium ATCC 14173; experiment: MIC against Mycoplasma in vitro (agar); assay type: cell-based; conditions: Friis broth solidified with 0.9% agarose, 6 days at 37°C
# Strep. dysgalactiae SPD1 = experiment: MIC against Veterinary Bacteria in vitro (agar dilution)
# Experimental: as §1
# [16] = Staphylococcus aureus, read-out: MIC
# [17] = Mesomycoplasma hyopneumoniae, 144 h, read-out: MIC
molecule,measurement,setting,value
"CC(=CC(=O)OCCCCC=CCCC(=O)O)CC1OCC(CC2OC2C(C)C(C)O)C(O)C1O (stereo not shown) [Example 1, pseudomonic acid D]",MIC,"M. suipneumoniae UCD 1; Mesomycoplasma hyopneumoniae, UCD1, 144 h, read-out: MIC",5 µg/mL
same,MIC,"M. dispar NCTC 10125; 144 h, read-out: MIC",2.5 µg/mL
same,MIC,"[1]; Staphylococcus aureus, 18 h",0.312 µg/mL
same,MIC,Staph. aureus Russell; [16],1 µg/mL
same,MIC,"[2]; 144 h, read-out: MIC",0.5 µg/mL
same,MIC,"[3]; Pseudomonas aeruginosa, NCTC10662, agar with 5% chocolated horse blood, read-out: MIC",> 25 µg/mL
same,MIC,[4]; read-out: MIC,> 25 µg/mL
same,MIC,[5]; read-out: MIC,0.25 µg/mL
same,MIC,"Strep. pneumoniae CN33; Streptococcus pneumoniae, read-out: MIC",0.25 µg/mL
same,MIC,"Staph. aureus Oxford [6]; Staphylococcus aureus, 18 h",0.312 µg/mL
same,MIC,[7]; [17],2.5 µg/mL
same,MIC,M. suipneumoniae HK(2); [17],5 µg/mL
same,MIC,[8]; [17],1 µg/mL
same,MIC,"Strep. uberis SPU1; Streptococcus uberis, SPU1, 18 h",0.039 µg/mL
same,MIC,"[9]; Mesomycoplasma hyopneumoniae, ATCC25095, 144 h, read-out: MIC",1 µg/mL
same,MIC,"M. suipneumoniae TAM 6N; Mesomycoplasma hyopneumoniae, TAM6N, 144 h, read-out: MIC",5 µg/mL
same,MIC,"[10]; Erysipelothrix rhusiopathiae, NCTC8163, 18 h",10 µg/mL
same,MIC,"Strep. agalactiae SPA1; Streptococcus agalactiae, SPA1, 18 h",0.625 µg/mL
same,MIC,M. suipneumoniae LABER; [17],2.5 µg/mL
same,MIC,"M. hyorhinis ATCC 25021; Mesomycoplasma hyorhinis, ATCC25021, 144 h, read-out: MIC",1 µg/mL
same,MIC,"M. gallisepticum S6; Mycoplasmoides gallisepticum, 144 h, read-out: MIC",> 10 µg/mL
same,MIC,Staph. aureus W2827; [16],1 µg/mL
same,MIC,"M. suipneumoniae MS 16; Mesomycoplasma hyopneumoniae, MS16, 144 h, read-out: MIC",2.5 µg/mL
same,MIC,[11]; read-out: MIC,0.5 µg/mL
same,MIC,"S. dublin S7; Salmonella enterica, S7, 18 h",> 20 µg/mL
same,MIC,Staph. aureus Oxford [12]; [16],1 µg/mL
same,MIC,"[13]; Staphylococcus aureus, 18 h",0.312 µg/mL
same,MIC,"E. coli E1; Escherichia coli, E1, 18 h",> 20 µg/mL
same,MIC,[14]; read-out: MIC,0.25 µg/mL
same,MIC,Bacillus subtilis 6633; read-out: MIC,1 µg/mL
same,MIC,"P. mirabilis 889; Proteus mirabilis, read-out: MIC",> 25 µg/mL
same,MIC,"Past. multocida PA2; Pasteurella multocida, PA2, 18 h",< 0.019 µg/mL
same,MIC,M. suipneumoniae NB12; [17],1 µg/mL
same,MIC,M. suipneumoniae Str. 11; [17],1 µg/mL
same,MIC,"Strep. pyogenes B2788; Streptococcus pyogenes, read-out: MIC",0.5 µg/mL
same,MIC,"M. bovis NCTC 10131; NCTC10131, 144 h",0.05 µg/mL
same,MIC,"Bord. bronchiseptica B09; Bordetella bronchiseptica, B09, 18 h",5 µg/mL
same,MIC,"E. coli NCTC 10418; Escherichia coli, NCTC10418, 18 h",> 20 µg/mL
same,MIC,"Past. haemolytica PA5; Mannheimia haemolytica, PA5, 18 h",2.5 µg/mL
same,MIC,"[15]; 144 h, read-out: MIC",0.1 µg/mL
same,MIC,"Strep. dysgalactiae SPD1; Streptococcus dysgalactiae, SPD1, 18 h",0.156 µg/mL
Methyl pseudomonate D [Example 2],MIC,M. suipneumoniae UCD 1,5.0 µg/mL
same,MIC,M. dispar NCTC 10125,1.0 µg/mL
same,MIC,"[1]; Staph. aureus 152 (pen. sens), Diagnostic Sensitivity Test Agar, 18 hours at 37°C",0.625 µg/mL
same,MIC,Staph. aureus Russell,2.5 µg/mL
same,MIC,[2],0.5 µg/mL
same,MIC,[3]; agar with 5% chocolated horse blood,>100 µg/mL
same,MIC,[4],>100 µg/mL
same,MIC,[5],0.5 µg/mL
same,MIC,Strep. pneumoniae CN33,2.5 µg/mL
same,MIC,"Staph. aureus Oxford [6]; Staph. aureus Oxford, Diagnostic Sensitivity Test Agar, 18 hours at 37°C",0.625 µg/mL
same,MIC,[7],5.0 µg/mL
same,MIC,M. suipneumoniae HK(2),5.0 µg/mL
same,MIC,[8],2.5 µg/mL
same,MIC,"Strep. uberis SPU1; Strep. uberis SPU1, Diagnostic Sensitivity Test Agar, 18 hours at 37°C",5.0 µg/mL
same,MIC,[9],2.5 µg/mL
same,MIC,M. suipneumoniae TAM 6N,10 µg/mL
same,MIC,"[10]; Erysipelothrix rhusiopathiae NCTC 8163, Diagnostic Sensitivity Test Agar, 18 hours at 37°C",20 µg/mL
same,MIC,"Strep. agalactiae SPA1; Strep. agalactiae SPA1, Diagnostic Sensitivity Test Agar, 18 hours at 37°C",0.312 µg/mL
same,MIC,M. suipneumoniae LABER,2.5 µg/mL
same,MIC,M. hyorhinis ATCC 25021,1.0 µg/mL
same,MIC,M. gallisepticum S6,>10 µg/mL
same,MIC,Staph. aureus W2827,1.0 µg/mL
same,MIC,M. suipneumoniae MS 16,2.5 µg/mL
same,MIC,[11],0.5 µg/mL
same,MIC,"S. dublin S7; S. dublin S7, Diagnostic Sensitivity Test Agar, 18 hours at 37°C",80 µg/mL
same,MIC,Staph. aureus Oxford [12],0.5 µg/mL
same,MIC,"[13]; Staph. aureus B4 (pen. resistant), Diagnostic Sensitivity Test Agar, 18 hours at 37°C",80 µg/mL
same,MIC,"E. coli E1; E. coli E1, Diagnostic Sensitivity Test Agar, 18 hours at 37°C",40 µg/mL
same,MIC,[14],0.5 µg/mL
same,MIC,Bacillus subtilis 6633,0.5 µg/mL
same,MIC,P. mirabilis 889,>100 µg/mL
same,MIC,"Past. multocida PA2; Past. multocida PA2, Diagnostic Sensitivity Test Agar, 18 hours at 37°C",2.5 µg/mL
same,MIC,M. suipneumoniae NB12,5.0 µg/mL
same,MIC,M. suipneumoniae Str. 11,2.5 µg/mL
same,MIC,Strep. pyogenes B2788,2.5 µg/mL
same,MIC,"M. bovis NCTC 10131; M. bovis NCTC 10131, Friis broth solidified with 0.9% agarose, 6 days at 37°C",0.05 µg/mL
same,MIC,"Bord. bronchiseptica B09; Bord. bronchiseptica B09, Diagnostic Sensitivity Test Agar, 18 hours at 37°C",10 µg/mL
same,MIC,"E. coli NCTC 10418; E. coli NCTC 10418, Diagnostic Sensitivity Test Agar, 18 hours at 37°C",40 µg/mL
same,MIC,"Past. haemolytica PA5; Past. haemolytica PA5, Diagnostic Sensitivity Test Agar, 18 hours at 37°C",1.25 µg/mL
same,MIC,[15],0.1 µg/mL
same,MIC,"Strep. dysgalactiae SPD1; Strep. dysgalactiae SPD1, Diagnostic Sensitivity Test Agar, 18 hours at 37°C",0.156 µg/mL
